Reference: ChEMBL document CHEMBL1138457, “Design and synthesis of an orally bioavailable and selective peptide epoxyketone proteasome inhibitor (PR-047)” (J Med Chem, 2009)
≈ marks a conversion by molar mass, not a printed value.

Tested on: not listed separately
Experiment: Cytotoxicity against human MESSA cells assessed as cell viability after 72 hrs by CellTiter-Glo luminescent assay
Format: functional, cell-based
Conditions: MES-SA
`CC(C)C[C@H](NC(=O)CN1CCOCC1)C(=O)N[C@@H](Cc1ccccc1)C(=O)N[C@@H](CC(C)C)C(=O)[C@@]1(C)CO1` gave an IC50 of 35 nM. `COC[C@H](NC(=O)c1cc(C)on1)C(=O)N[C@@H](COC)C(=O)N[C@@H](Cc1ccccc1)C(=O)[C@@]1(C)CO1` showed an IC50 of 17 nM. Compound `Cc1cc(C(=O)N[C@@H](Cc2cscn2)C(=O)N[C@@H](Cc2ccccc2)C(=O)N[C@@H](CC(C)C)C(=O)[C@@]2(C)CO2)no1` has an IC50 of 15 nM. Compound `CC(C)C[C@H](NC(=O)c1cc(CN2CCN(C)CC2)on1)C(=O)N[C@@H](Cc1ccccc1)C(=O)N[C@@H](CC(C)C)C(=O)[C@@]1(C)CO1` has an IC50 of 189 nM. `COC[C@H](NC(=O)c1cc(C)on1)C(=O)N[C@@H](C)C(=O)N[C@@H](CC(C)C)C(=O)[C@@]1(C)CO1` showed an IC50 of 28 nM.

Tested on: Mus musculus
Experiment: Inhibition of chymotrypsin-like activity of 20S proteasome in BALB/c mouse adrenal gland at 20 mg/kg, po after 1 hr
Format: functional
Set-up: scale not given: the % may be the effect or the level left
Conditions: not given
`COC[C@H](NC(=O)c1cc(C)on1)C(=O)N[C@@H](C)C(=O)N[C@@H](CC(C)C)C(=O)[C@@]1(C)CO1` showed an Activity of 8%.

Tested on: Mus musculus
Experiment: Inhibition of chymotrypsin-like activity of 20S proteasome in BALB/c mouse adrenal gland 40 mg/kg, po after 1 hr
Format: functional
Set-up: scale not given: the % may be the effect or the level left
Conditions: not given
Compound `CC(C)C[C@H](NC(=O)CN1CCOCC1)C(=O)N[C@@H](Cc1ccccc1)C(=O)N[C@@H](CC(C)C)C(=O)[C@@]1(C)CO1` has an Activity of 82%. `CC(C)C[C@H](NC(=O)c1cc(CN2CCN(C)CC2)on1)C(=O)N[C@@H](Cc1ccccc1)C(=O)N[C@@H](CC(C)C)C(=O)[C@@]1(C)CO1` gave an Activity of 101%.

Organism: Homo sapiens
Experiment: Ratio of Kinact to Ki for chymotrypsin-like activity of human 26S proteasome by spectrophotometry
Set-up: unit not given here
Conditions: not given
For `CC(C)C[C@H](NC(=O)CN1CCOCC1)C(=O)N[C@@H](Cc1ccccc1)C(=O)N[C@@H](CC(C)C)C(=O)[C@@]1(C)CO1`, the Ratio was 7900.

Tested on: not listed separately
Experiment: Metabolic stability in human liver microsomes assessed as extraction ratio at 1 uM
Format: ADME, Microsome
Conditions: not given
Work on `COC[C@H](NC(=O)c1cc(C)on1)C(=O)N[C@@H](COC)C(=O)N[C@@H](Cc1ccccc1)C(=O)[C@@]1(C)CO1` yielded a hepatic extraction ratio at 1 µM of 0.59 dimensionless ratio. For `COC[C@H](NC(=O)c1cc(C)on1)C(=O)N[C@@H](C)C(=O)N[C@@H](CC(C)C)C(=O)[C@@]1(C)CO1`, the hepatic extraction ratio at 1 µM was 0.28 dimensionless ratio.

Tested on: not listed separately
Experiment: Metabolic stability in mouse liver microsomes assessed as extraction ratio at 1 uM
Format: ADME, Microsome
Conditions: not given
For `COC[C@H](NC(=O)c1cc(C)on1)C(=O)N[C@@H](COC)C(=O)N[C@@H](Cc1ccccc1)C(=O)[C@@]1(C)CO1`, the hepatic extraction ratio at 1 µM was 0.59 dimensionless ratio. With `COC[C@H](NC(=O)c1cc(C)on1)C(=O)N[C@@H](C)C(=O)N[C@@H](CC(C)C)C(=O)[C@@]1(C)CO1` the hepatic extraction ratio at 1 µM was 0.48 dimensionless ratio.

Same assay, conditions: read-out: ERH
`CC(C)C[C@H](NC(=O)CN1CCOCC1)C(=O)N[C@@H](Cc1ccccc1)C(=O)N[C@@H](CC(C)C)C(=O)[C@@]1(C)CO1` gave a hepatic extraction ratio at 1 µM of 0.95.

Tested on: not listed separately
Experiment: Inhibition of chymotrypsin-like activity of human 20S proteasome beta 5 subunit by proteasome active site ELISA
Conditions: not given
Compound `CC(C)C[C@H](NC(=O)[C@H](Cc1ccccc1)NC(=O)c1cnccn1)B(O)O` [BORTEZOMIB] has an IC50 of 8.7 nM. `COC[C@H](NC(=O)c1cc(C)on1)C(=O)N[C@@H](COC)C(=O)N[C@@H](Cc1ccccc1)C(=O)[C@@]1(C)CO1` showed an IC50 of 11 nM.

Tested on: not listed separately
Experiment: Inhibition of chymotrypsin-like activity of 20S proteasome in human MOLT4 cells after 1 hr by […]
Format: cell-based
Conditions: MOLT-4, 1 h
For `CC(C)C[C@H](NC(=O)CN1CCOCC1)C(=O)N[C@@H](Cc1ccccc1)C(=O)N[C@@H](CC(C)C)C(=O)[C@@]1(C)CO1`, the IC50 was 45 nM. With `COC[C@H](NC(=O)c1cc(C)on1)C(=O)N[C@@H](COC)C(=O)N[C@@H](Cc1ccccc1)C(=O)[C@@]1(C)CO1` the IC50 was 35 nM. Compound `Cc1cc(C(=O)N[C@@H](Cc2cscn2)C(=O)N[C@@H](Cc2ccccc2)C(=O)N[C@@H](CC(C)C)C(=O)[C@@]2(C)CO2)no1` has an IC50 of 56 nM. Work on `CC(C)C[C@H](NC(=O)c1cc(CN2CCN(C)CC2)on1)C(=O)N[C@@H](Cc1ccccc1)C(=O)N[C@@H](CC(C)C)C(=O)[C@@]1(C)CO1` yielded an IC50 of 124 nM. Work on `COC[C@H](NC(=O)c1cc(C)on1)C(=O)N[C@@H](C)C(=O)N[C@@H](CC(C)C)C(=O)[C@@]1(C)CO1` yielded an IC50 of 57 nM.

Tested on: not listed separately
Experiment: Chemical stability in simulated gastric fluid assessed as compound remaining at 4 uM after 15 mins
Format: physicochemical
Conditions: read-out: Stability
`CC(C)C[C@H](NC(=O)CN1CCOCC1)C(=O)N[C@@H](Cc1ccccc1)C(=O)N[C@@H](CC(C)C)C(=O)[C@@]1(C)CO1` gave a remaining at 0.25 h, 4 µM of 90%.

Tested on: Mus musculus
Experiment: Inhibition of chymotrypsin-like activity of 20S proteasome in BALB/c mouse adrenal gland at 10 mg/kg, po after 1 hr
Format: functional
Set-up: scale not given: the % may be the effect or the level left
Conditions: not given
Compound `COC[C@H](NC(=O)c1cc(C)on1)C(=O)N[C@@H](COC)C(=O)N[C@@H](Cc1ccccc1)C(=O)[C@@]1(C)CO1` has an Activity of 43%. In the case of `Cc1cc(C(=O)N[C@@H](Cc2cscn2)C(=O)N[C@@H](Cc2ccccc2)C(=O)N[C@@H](CC(C)C)C(=O)[C@@]2(C)CO2)no1`, the Activity is reported as 63%.

Tested on: not listed separately
Experiment: Solubility in ethanol-PS80 citrate buffer at pH 3.5 by HPLC analysis
Format: physicochemical
Conditions: not given
For `CC(C)C[C@H](NC(=O)c1cc(CN2CCN(C)CC2)on1)C(=O)N[C@@H](Cc1ccccc1)C(=O)N[C@@H](CC(C)C)C(=O)[C@@]1(C)CO1`, the solubility was no less than 1000 µg/mL. With `COC[C@H](NC(=O)c1cc(C)on1)C(=O)N[C@@H](C)C(=O)N[C@@H](CC(C)C)C(=O)[C@@]1(C)CO1` the solubility was 1240 µg/mL (≈ 2740 µM).

Tested on: not listed separately
Experiment: Cytotoxicity against multidrug resistance transporter expressing doxorubicin resistant human MESSA cells assessed as cell viability after 72 hrs by CellTiter-Glo luminescent assay
Format: functional, cell-based
Conditions: MES-SA
With `CC(C)C[C@H](NC(=O)CN1CCOCC1)C(=O)N[C@@H](Cc1ccccc1)C(=O)N[C@@H](CC(C)C)C(=O)[C@@]1(C)CO1` the IC50 was 308 nM. Compound `COC[C@H](NC(=O)c1cc(C)on1)C(=O)N[C@@H](COC)C(=O)N[C@@H](Cc1ccccc1)C(=O)[C@@]1(C)CO1` has an IC50 of 155 nM. Work on `Cc1cc(C(=O)N[C@@H](Cc2cscn2)C(=O)N[C@@H](Cc2ccccc2)C(=O)N[C@@H](CC(C)C)C(=O)[C@@]2(C)CO2)no1` yielded an IC50 of 77 nM. Compound `CC(C)C[C@H](NC(=O)c1cc(CN2CCN(C)CC2)on1)C(=O)N[C@@H](Cc1ccccc1)C(=O)N[C@@H](CC(C)C)C(=O)[C@@]1(C)CO1` has an IC50 greater than 1000 nM. For `COC[C@H](NC(=O)c1cc(C)on1)C(=O)N[C@@H](C)C(=O)N[C@@H](CC(C)C)C(=O)[C@@]1(C)CO1`, the IC50 was 276 nM.

Tested on: not listed separately
Experiment: Chemical stability in simulated intestinal fluid assessed as compound remaining at 4 uM after 15 mins
Format: physicochemical
Conditions: read-out: Stability
Compound `CC(C)C[C@H](NC(=O)CN1CCOCC1)C(=O)N[C@@H](Cc1ccccc1)C(=O)N[C@@H](CC(C)C)C(=O)[C@@]1(C)CO1` has a remaining at 0.25 h, 4 µM of 45%. `COC[C@H](NC(=O)c1cc(C)on1)C(=O)N[C@@H](COC)C(=O)N[C@@H](Cc1ccccc1)C(=O)[C@@]1(C)CO1` gave a remaining at 0.25 h, 4 µM of 90%. `Cc1cc(C(=O)N[C@@H](Cc2cscn2)C(=O)N[C@@H](Cc2ccccc2)C(=O)N[C@@H](CC(C)C)C(=O)[C@@]2(C)CO2)no1` gave a remaining at 0.25 h, 4 µM of 20%. Work on `CC(C)C[C@H](NC(=O)c1cc(CN2CCN(C)CC2)on1)C(=O)N[C@@H](Cc1ccccc1)C(=O)N[C@@H](CC(C)C)C(=O)[C@@]1(C)CO1` yielded a remaining at 0.25 h, 4 µM of 40%. For `COC[C@H](NC(=O)c1cc(C)on1)C(=O)N[C@@H](C)C(=O)N[C@@H](CC(C)C)C(=O)[C@@]1(C)CO1`, the remaining at 0.25 h, 4 µM was 100%.

Tested on: Mus musculus
Experiment: Inhibition of chymotrypsin-like activity of 20S proteasome in BALB/c mouse liver at 40 mg/kg, po after 1 hr
Format: functional
Set-up: scale not given: the % may be the effect or the level left
Conditions: not given
Work on `CC(C)C[C@H](NC(=O)CN1CCOCC1)C(=O)N[C@@H](Cc1ccccc1)C(=O)N[C@@H](CC(C)C)C(=O)[C@@]1(C)CO1` yielded an Activity of 22%.

Molecular target: T1, Proteasome subunit beta type-8 (Homo sapiens, UniProt P28062)
T1 sequence (P28062 whole entry): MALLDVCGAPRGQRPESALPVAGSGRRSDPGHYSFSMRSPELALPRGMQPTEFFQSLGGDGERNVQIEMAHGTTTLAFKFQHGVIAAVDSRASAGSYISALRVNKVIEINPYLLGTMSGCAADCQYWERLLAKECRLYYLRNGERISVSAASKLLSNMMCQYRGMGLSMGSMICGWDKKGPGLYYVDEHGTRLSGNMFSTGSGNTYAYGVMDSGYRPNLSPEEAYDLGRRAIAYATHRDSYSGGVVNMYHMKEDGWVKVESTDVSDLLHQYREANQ
Conditions: not given
With `COC[C@H](NC(=O)c1cc(C)on1)C(=O)N[C@@H](COC)C(=O)N[C@@H](Cc1ccccc1)C(=O)[C@@]1(C)CO1` the IC50 was 21 nM.

Tested on: not listed separately
Experiment: Inhibition of chymotrypsin-like activity of human 20S proteasome by spectrofluorimetry
Conditions: not given
`CC(C)C[C@H](NC(=O)CN1CCOCC1)C(=O)N[C@@H](Cc1ccccc1)C(=O)N[C@@H](CC(C)C)C(=O)[C@@]1(C)CO1` gave an IC50 of 57 nM. With `COC[C@H](NC(=O)c1cc(C)on1)C(=O)N[C@@H](COC)C(=O)N[C@@H](Cc1ccccc1)C(=O)[C@@]1(C)CO1` the IC50 was 24 nM. `Cc1cc(C(=O)N[C@@H](Cc2cscn2)C(=O)N[C@@H](Cc2ccccc2)C(=O)N[C@@H](CC(C)C)C(=O)[C@@]2(C)CO2)no1` gave an IC50 of 6.7 nM. Work on `CC(C)C[C@H](NC(=O)c1cc(CN2CCN(C)CC2)on1)C(=O)N[C@@H](Cc1ccccc1)C(=O)N[C@@H](CC(C)C)C(=O)[C@@]1(C)CO1` yielded an IC50 of 94 nM. For `COC[C@H](NC(=O)c1cc(C)on1)C(=O)N[C@@H](C)C(=O)N[C@@H](CC(C)C)C(=O)[C@@]1(C)CO1`, the IC50 was 19 nM.

Tested on: Mus musculus
Experiment: Inhibition of chymotrypsin-like activity of 20S proteasome in BALB/c mouse blood at 40 mg/kg, po after 1 hr
Format: functional
Set-up: scale not given: the % may be the effect or the level left
Conditions: not given
Work on `CC(C)C[C@H](NC(=O)CN1CCOCC1)C(=O)N[C@@H](Cc1ccccc1)C(=O)N[C@@H](CC(C)C)C(=O)[C@@]1(C)CO1` yielded an Activity of 37%.
